{
  "source": "ChEMBL document CHEMBL5705899",
  "about": "(Biochem J, 2014)",
  "key": {"[1]": {"biological_target": "Protein kinase C zeta type (Homo sapiens) (UniProt Q05513)", "sequence (Q05513 whole entry)": "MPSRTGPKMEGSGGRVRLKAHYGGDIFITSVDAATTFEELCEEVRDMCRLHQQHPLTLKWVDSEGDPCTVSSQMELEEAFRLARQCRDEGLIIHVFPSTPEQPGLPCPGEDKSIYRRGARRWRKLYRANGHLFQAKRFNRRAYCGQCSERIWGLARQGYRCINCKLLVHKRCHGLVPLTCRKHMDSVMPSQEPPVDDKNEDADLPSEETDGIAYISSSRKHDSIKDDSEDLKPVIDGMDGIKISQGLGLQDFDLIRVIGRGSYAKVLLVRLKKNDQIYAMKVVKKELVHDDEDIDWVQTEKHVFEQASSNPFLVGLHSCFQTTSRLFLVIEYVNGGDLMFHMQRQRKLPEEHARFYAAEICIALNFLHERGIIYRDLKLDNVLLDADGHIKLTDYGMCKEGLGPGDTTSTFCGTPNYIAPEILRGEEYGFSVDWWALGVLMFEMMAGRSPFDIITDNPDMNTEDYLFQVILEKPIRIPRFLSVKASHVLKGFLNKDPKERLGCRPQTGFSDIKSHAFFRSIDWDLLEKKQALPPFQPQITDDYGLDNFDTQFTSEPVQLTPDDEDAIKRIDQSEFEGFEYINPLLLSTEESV", "experiment": "Inhibition of human PKCzeta at 1 uM using 3xChocktide-PKC as substrate in presence of 33P-ATP by ProQinase assay"}, "[2]": {"biological_target": "Platelet-derived growth factor receptor alpha (Homo sapiens) (UniProt P16234)", "experiment": "Inhibition of human PDGFRalpha at 1 uM using Poly(Ala,Glu,Lys,Tyr) as substrate in presence of 33P-ATP by ProQinase assay"}, "[3]": {"biological_target": "Homeodomain-interacting protein kinase 4 (Homo sapiens) (UniProt Q8NE63)", "experiment": "Inhibition of human HIPK4 at 1 uM using RBER-IRStide as substrate in presence of 33P-ATP by ProQinase assay"}, "[4]": {"biological_target": "Dual specificity protein kinase CLK4 (Homo sapiens) (UniProt Q9HAZ1)", "experiment": "Inhibition of human CLK4 at 1 uM using MBP as substrate in presence of 33P-ATP by ProQinase assay"}, "[5]": {"biological_target": "Protein kinase C delta type (Homo sapiens) (UniProt Q05655)", "experiment": "Inhibition of human PKCdelta at 1 uM using 3xChocktide-PKC as substrate in presence of 33P-ATP by ProQinase assay"}, "[6]": {"biological_target": "Homeodomain-interacting protein kinase 2 (Homo sapiens) (UniProt Q9H2X6)", "experiment": "Inhibition of human HIPK2 at 1 uM using RBER-CHKtide as substrate in presence of 33P-ATP by ProQinase assay"}, "[7]": {"biological_target": "Tyrosine-protein kinase Yes (Homo sapiens) (UniProt P07947)", "experiment": "Inhibition of recombinant human N-terminal His6-tagged YES1 (1 to 543 residues) expressed in baculovirus infected Sf21 cells assessed as remaining activity at 1 uM using Poly(Glu,Tyr) as substrate incubated for 30 mins in presence of [gamma-33P]ATP by filter binding method relative to control"}, "[8]": {"biological_target": "Tyrosine-protein kinase JAK3 (Homo sapiens) (UniProt P52333)", "experiment": "Inhibition of human JAK3 at 1 uM using poly(Ala,Glu,Lys,Tyr) as substrate in presence of 33P-ATP by ProQinase assay"}, "[9]": {"biological_target": "Ephrin type-A receptor 3 (Homo sapiens) (UniProt P29320)", "sequence (P29320 whole entry)": "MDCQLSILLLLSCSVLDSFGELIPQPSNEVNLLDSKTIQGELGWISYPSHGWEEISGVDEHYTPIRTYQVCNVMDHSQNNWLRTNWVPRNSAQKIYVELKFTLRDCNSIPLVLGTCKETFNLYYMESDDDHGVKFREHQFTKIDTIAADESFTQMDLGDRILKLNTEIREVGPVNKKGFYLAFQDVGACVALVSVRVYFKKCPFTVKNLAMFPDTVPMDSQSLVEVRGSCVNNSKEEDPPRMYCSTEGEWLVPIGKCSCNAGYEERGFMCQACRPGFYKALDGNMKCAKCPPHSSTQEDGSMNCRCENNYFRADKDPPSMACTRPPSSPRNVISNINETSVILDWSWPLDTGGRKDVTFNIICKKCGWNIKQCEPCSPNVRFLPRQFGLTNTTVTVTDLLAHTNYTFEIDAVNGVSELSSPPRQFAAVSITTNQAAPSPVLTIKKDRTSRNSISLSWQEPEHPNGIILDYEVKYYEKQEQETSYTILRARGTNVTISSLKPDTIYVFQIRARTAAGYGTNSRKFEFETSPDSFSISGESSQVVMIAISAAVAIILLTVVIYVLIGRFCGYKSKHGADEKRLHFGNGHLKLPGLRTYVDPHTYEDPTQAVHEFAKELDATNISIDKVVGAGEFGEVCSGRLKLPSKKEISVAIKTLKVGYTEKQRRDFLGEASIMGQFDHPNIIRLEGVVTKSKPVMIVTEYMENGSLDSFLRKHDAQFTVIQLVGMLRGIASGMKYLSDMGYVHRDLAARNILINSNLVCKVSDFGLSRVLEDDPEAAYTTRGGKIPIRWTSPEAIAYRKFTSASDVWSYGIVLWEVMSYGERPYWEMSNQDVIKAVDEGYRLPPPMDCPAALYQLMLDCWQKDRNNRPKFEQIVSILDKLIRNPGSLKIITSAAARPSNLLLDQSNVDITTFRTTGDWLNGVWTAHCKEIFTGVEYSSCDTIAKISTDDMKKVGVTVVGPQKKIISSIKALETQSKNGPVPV", "experiment": "Inhibition of human EPHA3 at 1 uM using polyEY as substrate in presence of 33P-ATP by ProQinase assay"}, "[10]": {"biological_target": "Myosin light chain kinase (Homo sapiens) (UniProt Q32MK0)", "sequence (Q32MK0 whole entry)": "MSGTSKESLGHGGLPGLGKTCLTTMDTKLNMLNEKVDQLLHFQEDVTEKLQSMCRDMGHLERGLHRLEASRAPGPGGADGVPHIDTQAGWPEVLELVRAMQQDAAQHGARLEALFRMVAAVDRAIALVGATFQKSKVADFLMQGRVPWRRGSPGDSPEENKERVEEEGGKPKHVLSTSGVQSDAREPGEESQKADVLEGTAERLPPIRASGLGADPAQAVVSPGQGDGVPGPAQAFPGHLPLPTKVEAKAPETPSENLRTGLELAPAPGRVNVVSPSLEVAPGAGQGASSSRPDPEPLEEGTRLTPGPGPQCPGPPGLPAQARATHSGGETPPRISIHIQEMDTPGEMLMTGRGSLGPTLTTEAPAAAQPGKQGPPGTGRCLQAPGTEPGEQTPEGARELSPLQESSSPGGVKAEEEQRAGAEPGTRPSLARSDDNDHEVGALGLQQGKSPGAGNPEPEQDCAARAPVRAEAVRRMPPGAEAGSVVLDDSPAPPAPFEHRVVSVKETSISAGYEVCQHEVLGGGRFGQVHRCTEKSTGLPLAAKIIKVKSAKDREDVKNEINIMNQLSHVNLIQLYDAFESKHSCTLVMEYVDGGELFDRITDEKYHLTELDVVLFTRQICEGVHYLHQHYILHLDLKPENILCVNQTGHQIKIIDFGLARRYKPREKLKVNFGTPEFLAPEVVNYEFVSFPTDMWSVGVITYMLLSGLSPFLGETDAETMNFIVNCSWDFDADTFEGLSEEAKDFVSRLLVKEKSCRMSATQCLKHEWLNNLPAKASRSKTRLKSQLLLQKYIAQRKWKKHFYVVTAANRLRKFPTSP", "experiment": "Inhibition of human MYLK3 at 1 uM using RB-S6P as substrate in presence of 33P-ATP by ProQinase assay"}, "[11]": {"biological_target": "Eukaryotic translation initiation factor 2-alpha kinase 3 (Homo sapiens) (UniProt Q9NZJ5)", "experiment": "Inhibition of recombinant human N-terminal GST-tagged EIF2AK3 (536 to 1116 residues) expressed in Escherichia coli assessed as remaining activity at 1 uM using MBP as substrate incubated for 30 mins in presence of [gamma-33P]ATP by filter binding method relative to control"}, "[12]": {"biological_target": "Insulin receptor-related protein (Homo sapiens) (UniProt P14616)", "sequence (P14616 27-742 limits assumed)": "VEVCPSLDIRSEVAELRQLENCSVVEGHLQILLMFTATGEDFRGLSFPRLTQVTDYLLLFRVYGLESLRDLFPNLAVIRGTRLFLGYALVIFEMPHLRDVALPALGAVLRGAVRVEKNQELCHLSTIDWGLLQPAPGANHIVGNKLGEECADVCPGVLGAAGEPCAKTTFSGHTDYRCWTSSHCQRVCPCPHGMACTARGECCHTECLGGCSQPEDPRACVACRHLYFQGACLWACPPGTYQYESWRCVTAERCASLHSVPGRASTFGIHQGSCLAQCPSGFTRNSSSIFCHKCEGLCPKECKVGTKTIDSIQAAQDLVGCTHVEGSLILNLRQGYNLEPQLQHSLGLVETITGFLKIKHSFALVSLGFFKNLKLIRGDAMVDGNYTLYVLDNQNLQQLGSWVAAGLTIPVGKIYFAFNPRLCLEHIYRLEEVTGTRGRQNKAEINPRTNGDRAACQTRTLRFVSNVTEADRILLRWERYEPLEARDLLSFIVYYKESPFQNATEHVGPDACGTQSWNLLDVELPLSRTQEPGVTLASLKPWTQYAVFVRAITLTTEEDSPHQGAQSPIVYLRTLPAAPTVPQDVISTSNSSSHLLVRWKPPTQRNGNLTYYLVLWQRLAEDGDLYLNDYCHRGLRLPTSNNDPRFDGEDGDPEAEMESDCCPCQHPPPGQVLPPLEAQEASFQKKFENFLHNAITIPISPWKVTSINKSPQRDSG", "sequence (P14616 747-1297 limits assumed)": "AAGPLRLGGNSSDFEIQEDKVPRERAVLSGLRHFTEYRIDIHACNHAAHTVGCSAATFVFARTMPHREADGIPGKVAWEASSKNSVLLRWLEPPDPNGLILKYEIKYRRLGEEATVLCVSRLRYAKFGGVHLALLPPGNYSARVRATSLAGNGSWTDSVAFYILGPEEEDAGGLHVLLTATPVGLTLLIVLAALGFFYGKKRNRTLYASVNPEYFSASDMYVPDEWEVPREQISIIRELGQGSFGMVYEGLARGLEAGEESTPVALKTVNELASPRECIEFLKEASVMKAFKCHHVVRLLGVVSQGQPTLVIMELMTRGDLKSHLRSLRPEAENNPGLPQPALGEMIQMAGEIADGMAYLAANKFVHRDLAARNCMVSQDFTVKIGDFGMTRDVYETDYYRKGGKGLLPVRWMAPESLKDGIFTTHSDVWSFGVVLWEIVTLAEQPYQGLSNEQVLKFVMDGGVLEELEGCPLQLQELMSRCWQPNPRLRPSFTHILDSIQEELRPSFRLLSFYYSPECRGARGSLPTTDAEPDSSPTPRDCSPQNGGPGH", "experiment": "Inhibition of recombinant human N-terminal His6-tagged IRR (944 to 1236 residues) expressed in baculovirus infected Sf21 cells assessed as remaining activity at 1 uM using MBP as substrate incubated for 30 mins in presence of [gamma-33P]ATP by filter binding method relative to control"}, "[13]": {"biological_target": "Mitogen-activated protein kinase 12 (Homo sapiens) (UniProt P53778)", "experiment": "Inhibition of human P38gamma at 1 uM using RBER-IRStide as substrate in presence of 33P-ATP by ProQinase assay"}, "[14]": {"biological_target": "Serine/threonine-protein kinase TBK1 (Homo sapiens) (UniProt Q9UHD2)", "experiment": "Inhibition of human TBK1 at 1 uM using casein as substrate in presence of 33P-ATP by ProQinase assay"}, "[15]": {"biological_target": "Maternal embryonic leucine zipper kinase (Homo sapiens) (UniProt Q14680)", "experiment": "Inhibition of human MELK at 1 uM using RBER-CHKtide as substrate in presence of 33P-ATP by ProQinase assay"}, "[16]": {"biological_target": "Insulin receptor-related protein (Homo sapiens) (UniProt P14616)", "experiment": "Inhibition of human INSRR at 1 uM using poly(Ala,Glu,Lys,Tyr) as substrate in presence of 33P-ATP by ProQinase assay"}, "[17]": {"biological_target": "Serine/threonine-protein kinase Chk2 (Homo sapiens) (UniProt O96017)", "sequence (O96017 whole entry, the tested form may be a part)": "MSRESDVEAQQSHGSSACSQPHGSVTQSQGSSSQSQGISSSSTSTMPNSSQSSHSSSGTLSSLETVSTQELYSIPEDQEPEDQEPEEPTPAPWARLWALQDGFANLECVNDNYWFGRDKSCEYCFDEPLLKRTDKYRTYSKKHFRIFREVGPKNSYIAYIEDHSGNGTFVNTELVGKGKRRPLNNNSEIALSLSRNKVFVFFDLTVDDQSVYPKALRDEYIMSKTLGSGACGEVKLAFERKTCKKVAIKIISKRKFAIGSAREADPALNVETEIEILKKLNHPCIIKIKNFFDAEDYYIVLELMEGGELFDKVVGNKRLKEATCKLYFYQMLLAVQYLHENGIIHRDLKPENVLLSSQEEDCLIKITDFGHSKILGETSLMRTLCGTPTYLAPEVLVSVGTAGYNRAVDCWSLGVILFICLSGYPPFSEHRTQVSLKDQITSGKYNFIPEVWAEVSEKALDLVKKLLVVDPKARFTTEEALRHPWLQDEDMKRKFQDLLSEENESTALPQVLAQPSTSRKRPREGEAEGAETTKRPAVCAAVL", "experiment": "Inhibition of recombinant human N-terminal GST/C-terminal His6-tagged CHK2 (5 to 543 residues) expressed in Escherichia coli assessed as remaining activity at 1 uM using CHKtide as substrate incubated for 30 mins in presence of [gamma-33P]ATP by filter binding method relative to control"}, "[18]": {"biological_target": "MAP/microtubule affinity-regulating kinase 3 (Homo sapiens) (UniProt P27448)", "experiment": "Inhibition of recombinant human N-terminal His6-tagged MARK3 (2 to 729 residues) expressed in baculovirus infected Sf21 cells assessed as remaining activity at 1 uM using CHKtide as substrate incubated for 30 mins in presence of [gamma-33P]ATP by filter binding method relative to control"}, "[19]": {"biological_target": "Dual specificity mitogen-activated protein kinase kinase 6 (Homo sapiens) (UniProt P52564)", "experiment": "Inhibition of recombinant human N-terminal MBP-tagged MKK6 (2 to 334 residues) expressed in Escherichia coli assessed as remaining activity at 1 uM using SAPK2a as substrate incubated for 30 mins in presence of [gamma-33P]ATP by filter binding method relative to control"}, "[20]": {"biological_target": "Testis-specific serine/threonine-protein kinase 1 (Homo sapiens) (UniProt Q9BXA7)", "sequence (Q9BXA7 whole entry, the tested form may be a part)": "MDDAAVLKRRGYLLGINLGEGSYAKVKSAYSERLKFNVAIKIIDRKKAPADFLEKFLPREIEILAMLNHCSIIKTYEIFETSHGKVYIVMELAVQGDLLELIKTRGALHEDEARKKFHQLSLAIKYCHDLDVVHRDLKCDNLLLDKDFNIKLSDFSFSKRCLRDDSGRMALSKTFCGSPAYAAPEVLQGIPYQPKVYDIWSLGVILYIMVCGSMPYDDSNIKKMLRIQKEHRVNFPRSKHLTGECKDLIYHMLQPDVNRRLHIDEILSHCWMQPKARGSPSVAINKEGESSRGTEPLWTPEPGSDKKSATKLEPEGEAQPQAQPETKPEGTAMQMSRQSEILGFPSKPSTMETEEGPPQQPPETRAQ", "experiment": "Inhibition of recombinant human N-terminal GST-tagged TSSK1 (1 to 367 residues) expressed in Escherichia coli assessed as remaining activity at 1 uM using KKKVSRSGLYRSPSMPENLNRPR as substrate incubated for 30 mins in presence of [gamma-33P]ATP by filter binding method relative to control"}, "[21]": {"biological_target": "Mitogen-activated protein kinase 14 (Homo sapiens) (UniProt Q16539)", "experiment": "Inhibition of human p38alpha at 1 uM using ATF2 as substrate in presence of 33P-ATP by ProQinase assay"}, "[22]": {"biological_target": "G protein-coupled receptor kinase 4 (Homo sapiens) (UniProt P32298)", "experiment": "Inhibition of human GRK4 at 1 uM using casein as substrate in presence of 33P-ATP by ProQinase assay"}, "[23]": {"biological_target": "Insulin receptor (Homo sapiens) (UniProt P06213)", "experiment": "Inhibition of human INSR at 1 uM using poly(Ala,Glu,Lys,Tyr) as substrate in presence of 33P-ATP by ProQinase assay"}, "[24]": {"biological_target": "Phosphatidylinositol 4,5-bisphosphate 3-kinase catalytic subunit delta isoform (Homo sapiens) (UniProt O00329)", "experiment": "Inhibition of p100delta (unknown origin) at 1 uM"}, "[25]": {"biological_target": "Serine/threonine-protein kinase Nek2 (Homo sapiens) (UniProt P51955)", "sequence (P51955 whole entry)": "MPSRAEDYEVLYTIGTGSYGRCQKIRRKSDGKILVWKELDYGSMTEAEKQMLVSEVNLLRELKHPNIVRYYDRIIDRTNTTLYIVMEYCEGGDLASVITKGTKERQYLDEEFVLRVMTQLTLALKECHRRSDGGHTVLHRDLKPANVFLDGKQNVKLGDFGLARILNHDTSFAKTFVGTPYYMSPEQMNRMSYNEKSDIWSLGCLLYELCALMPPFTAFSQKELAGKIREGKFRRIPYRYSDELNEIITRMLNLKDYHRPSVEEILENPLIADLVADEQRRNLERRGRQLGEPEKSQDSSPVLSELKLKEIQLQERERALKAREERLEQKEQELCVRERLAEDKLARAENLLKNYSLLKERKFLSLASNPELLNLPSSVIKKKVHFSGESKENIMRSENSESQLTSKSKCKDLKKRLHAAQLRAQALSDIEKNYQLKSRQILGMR", "experiment": "Inhibition of human NEK2 at 1 uM using RB-CTF as substrate in presence of 33P-ATP by ProQinase assay"}},
  "note": "Calls of active or inactive are those of the source. The calls are words filed in the database; no cut-off is given here.",
  "data": [
    {"smiles": "CC(C)(O)CNc1ncc(-c2ccnc(Nc3ccnc(Cl)c3)n2)c(CC2CC2)n1", "values": [
      {"measurement": "inhibition", "setting": "[1]", "value": "inactive"},
      {"measurement": "inhibition", "setting": "[2]", "value": "inactive"},
      {"measurement": "inhibition", "setting": "[3]", "value": "inactive"},
      {"measurement": "inhibition", "setting": "[4]", "value": "inactive"},
      {"measurement": "inhibition", "setting": "[5]", "value": "inactive"},
      {"measurement": "inhibition", "setting": "[6]", "value": "inactive"},
      {"measurement": "Activity", "setting": "[7]", "value": 77, "unit": "%"},
      {"measurement": "inhibition", "setting": "[8]", "value": "inactive"},
      {"measurement": "inhibition", "setting": "[9]", "value": "inactive"},
      {"measurement": "inhibition", "setting": "[10]", "value": "inactive"},
      {"measurement": "Activity", "setting": "[11]", "value": 125, "unit": "%"},
      {"measurement": "Activity", "setting": "[12]", "value": 113, "unit": "%"},
      {"measurement": "inhibition", "setting": "[13]", "value": "inactive"},
      {"measurement": "inhibition", "setting": "[14]", "value": "inactive"},
      {"measurement": "inhibition", "setting": "[15]", "value": "inactive"},
      {"measurement": "inhibition", "setting": "[16]", "value": "inactive"},
      {"measurement": "Activity", "setting": "[17]", "value": 103, "unit": "%"},
      {"measurement": "Activity", "setting": "[18]", "value": 109, "unit": "%"},
      {"measurement": "Activity", "setting": "[19]", "value": 124, "unit": "%"},
      {"measurement": "Activity", "setting": "[20]", "value": 118, "unit": "%"},
      {"measurement": "inhibition", "setting": "[21]", "value": "inactive"},
      {"measurement": "inhibition", "setting": "[22]", "value": "inactive"},
      {"measurement": "inhibition", "setting": "[23]", "value": "inactive"},
      {"measurement": "inhibition", "setting": "[24]", "value": "inactive"},
      {"measurement": "inhibition", "setting": "[25]", "value": "inactive"}
    ]}
  ]
}
